Results on four compounds are retold here after article PMC6405172, “In vitro activity and mode of action of phenolic compounds on Leishmania donovani” (PLoS Neglected Tropical Diseases, 2019).

Each structure is given as a SMILES string. Read-outs that look alike come from different tables or passages of the source.

Assay [1] has as its system Leishmania donovani promastigotes. Briefly: Promastigote viability assay (MTT). The class given is cell-based. The settings on record: for IC50: Leishmania donovani, MTT, 72 hours at 25°C, read-out: Promastigotes IC50 (μM) ± SD; for Selectivity Index (CC50/IC50), promastigotes: CC50 Raw 264.7 / IC50 promastigotes. Here is the method:
The MTT assay was done as previously described. Briefly, promastigotes (2 x 10^5 cells) were cultured in freshly prepared M-199 medium supplemented with 10% heat inactivated fetal bovine serum in the presence or absence of varying concentrations of the phenolic compounds (0–50 μg/mL) for 72 hours at 25°C. Amphotericin B (0–50 μg/mL) and deferoxamine (0–50 μg/mL) were used as positive controls. After incubation, 5 mg/mL MTT solution was added to the promastigotes in each well and incubated for 3 hours at 25°C. In this assay, the yellow tetrazolium MTT dye was reduced to insoluble formazan crystals (purple color) in living cells using NADH as their reducing agent. Formazan crystals formed after incubation were solubilized with acidified isopropanol and incubated at 37°C for 30 min. The change in color from yellow to purple was read at an absorbance of 570 nm using Thermo Scientific Varioskan LUX. The cell viability and IC50 were determined from the concentration response curve generated using GraphPad Prism 6.0 Software.

Assay [2] relates to Leishmania donovani intracellular amastigotes. The assay is described as follows: Intracellular amastigote assay in infected RAW 264.7 cells. The class given is cell-based. The settings on record: for Selectivity Index (CC50/IC50), amastigotes: CC50 Raw 264.7 / IC50 intracellular amastigotes; for IC50: intracellular amastigotes in RAW 264.7 cells, 48 hours, read-out: Amastigotes IC50 (μM) ± SD. On the procedure:
(§1) Amastigote cultures were prepared as reported by Jain and colleagues. Briefly, Raw 264.7 cells (4 x 10^7 cells) were seeded in 4 chamber slides and 1 x 10^7 cells in 96 well plates and incubated for 24 hours at 37°C in 5% CO2. The RAW 264.7 cells were infected with metacyclic promastigotes (1 x 10^8 cells) at an infection ratio of 1:10 macrophage: parasites and incubated for 24 hours at 37°C in 5% CO2. The overlying medium was removed, and the monolayer intracellular amastigotes were carefully washed four times with serum free M199 to remove free parasites. Freshly prepared M199 containing 10% FBS and the test compounds at concentrations ranging from 0–50 μg/mL were added to the infected cells and incubated for 48 hours at 37°C in 5% CO2. Triplicate incubations were performed in all the experiments. The chamber slides were washed thrice after incubation with M199 without FBS. The slides were then fixed in absolute methanol for 30 sec, rehydrated in 1x PBS for 5 min and stained with DAPI for 15 min. The slides were viewed by fluorescence microscopy and the number of infected macrophages counted using ImageJ Software to determine the infectivity index and IC50 values for amastigotes.
The infected RAW 264.7 cells in the 96 wells microtiter plates were also incubated for 48 hours and washed thrice as above. Sodium dodecyl sulfate (SDS) of concentration 0.05% was added to the wells for 30 sec for controlled lysis with M199 and 10% FBS. After the 30 sec, M199 with 10% FBS was added and the plates incubated at 25°C for 72 hours for the differentiation of the rescued amastigotes to promastigotes. Following incubation, the amastigotes were subjected to MTT assay and the absorbance obtained were used to estimate IC50 values of the compounds against the amastigote forms.

Assay [3] relates to L. donovani promastigotes. Briefly: Morphology analysis (DAPI, microscopy). The class given is cell-based, Leishmania donovani. The settings on record: 24 hours; for parasites with rounded morphology, aggregated kinetoplast and nuclear DNA: 2x IC50. Here is the method:
The cell pellets were then washed twice and resuspended in 1x PBS. The cells were then allowed to settle on poly-L-lysine coated slides and then rinsed with 1x PBS. Tris-HCl (100 mM) pH 7.5 in 1x PBS was used to block the PFA for 10 minutes. DAPI stain (0.1μg/mL) was added followed by one wash in 1x PBS. Coverslips were mounted onto the slides using Vectashield mounting media and observed under the Olympus fluorescent microscope to detect any phenotypic changes in L. donovani promastigotes. The total number of parasites was determined by direct counting of parasites per field, using ImageJ Software. The frequency of parasites was visually determined by counting parasites that had any abnormalities in their structure compared to the untreated control.

Assay [4] deals with Leishmania donovani promastigotes. The assay is described as follows: Iron content analysis by atomic absorption spectroscopy. The class given is cell-based. The settings on record: 24 hours; 4x IC50 (amphotericin B IC50). Here is the method:
The parasites were then washed twice with 1x PBS and resuspended in 50 μl deionized water. An aliquot (10 μl) of the parasite suspension was used for protein content determination as described by. The remaining parasite sample (40 μl) was digested with HNO3 for 1 hour at 80°C and overnight at 20°C. Cell digestions were stopped by the addition of 30% H2O2 and topped up to 1.5 ml with deionized water. Iron content in digested samples, spent and unused media were measured by atomic absorption spectroscopy using a Perkin Elmer Analyst 300 spectrometer.

For assay [5], the system named is iron superoxide dismutase A (FeSOD). The assay is described as follows: RT-qPCR mRNA expression of FeSOD. The class given is cell-based, Leishmania donovani. The settings on record: promastigotes, 24 hours; for FeSOD Relative quantity: Fig 7B. On the procedure: (§2) Promastigotes (1 x 10^7 cells) were separately treated with rosmarinic acid, apigenin, amphotericin B and deferoxamine, harvested after 24 hours incubation at 25°C. The parasites were then pelleted by centrifugation at 239 × g for 10 min and the pellet was re-suspended in 1 mL TRIzol. Samples were incubated overnight at -80°C and total RNA was extracted as described by the manufacturer’s protocol using Quick-RNA MiniPrep Plus (Zymo Research, USA). Purity of total RNA was determined to be approximately 2.0 using a Nanodrop. The oligonucleotide primers for the amplification of the iron dependent enzymes—ribonucleotide reductase (RNR) (3’[…] and 5’CAACAACTTCTGCGCATCG), iron superoxide dismutase A (FeSOD) (3’[…] and 5’[…]) and Leishmania iron transporter 1 (LIT1) (3’[…] and 5’ […]) were designed using sequences of Leishmania reference genome from tritrypdb.org (http://tritrypdb.org/tritrypdb/) and Primer 3 software. The oligonucleotide primers used in amplifying the housekeeping gene Histone 2A were (3’ […] and 5’[…]). The RT-qPCR reaction was conducted as described by manufacturer’s protocol with final concentrations of oligonucleotide primers as 0.4 μM, 1x Luna Universal One-Step Reaction mix, 1x Luna WarmStart RT Enzyme Mix and template RNA ≤ 1 μg. All the RT-PCR products were standardized with respect to the endogenous control, Histone 2A. The levels of the mRNA transcripts were obtained using the QuantStudio 5 Real-Time PCR System (Applied Biosystems). The data represent three independent experiments done in triplicate and a fold change in gene expression of >2 was considered significant.
In general terms: Real-time PCR tracks product formation cycle by cycle.

Assay [6] relates to ribonucleotide reductase (RNR). Briefly: RT-qPCR mRNA expression of RNR. The class given is cell-based, Leishmania donovani. The settings on record: promastigotes, 24 hours; for RNR Relative quantity: Fig 7C. On the procedure:
as §2

Assay [7] relates to Leishmania donovani intracellular amastigotes. Briefly: Infectivity index of infected macrophages (DAPI, fluorescence microscopy). The class given is cell-based. The settings on record: 48 hours; for infectivity values (infectivity index): concentration not given. On the procedure:
as §1

For the compound `C[C@@H]1[C@H](O)[C@@H](C)/C=C/C=C/C=C/C=C/C=C/C=C/C=C/[C@H](O[C@@H]2O[C@H](C)[C@@H](O)[C@H](N)[C@@H]2O)C[C@@H]2O[C@](O)(C[C@@H](O)C[C@@H](O)[C@H](O)CC[C@@H](O)C[C@@H](O)CC(=O)O[C@H]1C)C[C@H](O)[C@H]2C(=O)O` [Amphotericin B, reference compound], the IC50 (as a rule, the point on the concentration scale where inhibition reaches its midpoint) in assay [1] came out at 6.56 ± 0.06 µM. Further, in assay [2], the “Selectivity Index (CC50/IC50), amastigotes” value came out at 2.40 and the IC50 amounted to 6.49 ± 0.03 µM. The IC50 in assay [2] (Leishmania donovani, RAW264.7, 48 h) amounted to 6.491 ± 0.03 µM. The “parasites showing irregular shape, severe distortion in the cell membrane, loss of kinetoplast DNA” value in assay [3] (half the IC50) amounted to 90%. Further, in assay [4], the “concentration of iron in the spent media” value is 0.07 mg/L and the “intracellular iron levels in promastigotes” value (shortened to “intracellular iron levels”) was determined as 0.15 mg/L. In assay [5], the “FeSOD mRNA expression versus untreated” value is on record as “did not significantly change” and the “FeSOD Relative quantity” value was 0.7. In assay [6], the “increased expression of RNR” value is 3 fold and the “RNR Relative quantity” value is 3.2. The compound further came in with an infectivity index in assay [7] (3.12 μg/mL) of 56.

For `O=c1cc(-c2ccc(O)cc2)oc2cc(O)cc(O)c12` [Apigenin, apigenin], in assay [1], the “Selectivity Index (CC50/IC50), promastigotes” value was determined as 10.45 and the IC50 was found to be 22.77 ± 0.01 µM. Besides, the “Selectivity Index (CC50/IC50), amastigotes” value in assay [2] came out at 5.21. The IC50 in assay [2] (Leishmania donovani, RAW264.7) worked out at 45.66 ± 0.01 µM. In assay [4], the “concentration of iron in the spent media” value was 0.11 mg/L and the “intracellular iron levels” value stood at 0.1 mg/L. Further, in assay [5], the “FeSOD mRNA expression versus untreated” value is recorded as “did not significantly change” and the “FeSOD Relative quantity” value is 0.7. Besides, in assay [6], the “increased expression of RNR” value turned out to be 3 fold and the “RNR Relative quantity” value worked out at 2.5. Moreover, the “infectivity values (infectivity index)” value in assay [7] was determined as 152.2.

`CC(=O)N(O)CCCCCNC(=O)CCC(=O)N(O)CCCCCNC(=O)CCC(=O)N(O)CCCCCN` [Deferoxamine, deferoxamine, reference compound]: in assay [1], the “Selectivity Index (CC50/IC50), promastigotes” value is 2.60 and the IC50 amounted to 10.35 ± 0.01 µM. Further, the “Selectivity Index (CC50/IC50), amastigotes” value in assay [2] came out at 0.73. Also, the IC50 in assay [2] (Leishmania donovani, RAW264.7) was 36.74 ± 0.01 µM. For the same compound, the “parasites with rounded morphology, aggregated kinetoplast and nuclear DNA” value in assay [3] turned out to be 90%. Further, in assay [4], the “concentration of iron in the spent media” value was 0.08 mg/L and the “intracellular iron levels” value stood at 0.36 mg/L. For the same compound, in assay [5], the “FeSOD mRNA expression versus untreated” value stood at 5 fold and the “FeSOD Relative quantity” value was 5.0. In assay [6], the “decrease in the expression of RNR” value came out at 80 % reduction and the “RNR Relative quantity” value was found to be 0.2. Besides, in assay [7], the “infectivity values (infectivity index)” value is 177.

Take `O=C(/C=C/c1ccc(O)c(O)c1)O[C@H](Cc1ccc(O)c(O)c1)C(=O)O` [Rosmarinic acid, rosmarinic acid]: in assay [1], the “Selectivity Index (CC50/IC50), promastigotes” value is reported as 15.03 and the IC50 was found to be 16.34 ± 0.1 µM. Moreover, the “Selectivity Index (CC50/IC50), amastigotes” value in assay [2] is recorded as 12.70. Moreover, in assay [2] (Leishmania donovani, RAW264.7), the IC50 was determined as 19.21 ± 0.01 µM. The “parasites with rounded morphology, aggregated kinetoplast and nuclear DNA” value in assay [3] amounted to 70%. Besides, in assay [4], the “concentration of iron in the spent media” value is on record as 0.09 mg/L and the “intracellular iron levels” value came to 0.30 mg/L. In assay [5], the “FeSOD mRNA expression versus untreated” value is “did not significantly change” and the “FeSOD Relative quantity” value was 1.3. In addition, in assay [6], the “decrease in the expression of RNR” value was 90 % reduction and the “RNR Relative quantity” value was determined as 0.1. Besides, the “infectivity values (infectivity index)” value in assay [7] came to 140.
